Laboratory results reported in patent publication US20250312469A1 (CANGET BIOTEKPHARMA, priority 2024, published 2025).
“And” between values parts separate entries of the source, which are not always exact repeats. Equal entries are not always repeated.

What was measured:
SK-ES-1 OS tumors = assay: SK-ES-1 osteosarcoma xenograft; format: in vivo, SCID mice; conditions: weekly×4
From the text: The SK-ES-1 OS cells (2×10^6 per tumor site) mixed with 50% Matrigel were subcutaneously injected into 2-3 SCID mice in the flank area to establish xenograft tumors. The established OS tumors were implanted into experimental SCID mice for drug efficacy studies. […] The schedule and route were weekly×4 via oral (p.o.) administration (arrowed). Each tumor curve is the mean tumor size+SD from 2-4 SCID mice. […] Each body weight change curve is the mean body weight change+SD from 2-4 SCID mice.

WP2-uvrA = assay: Ames Bacterial Reverse Mutation Assay; conditions: for Background Lawn Code / Colony Counts Average / Colony Counts Replicate 1-3: WP2-uvrA
Method: The Ames Bacterial Reverse Mutation (AB™) used five bacterial tester strains (TA97a, TA98, TA100, TA1535, WP2-uvrA).
Tester strains were added to flasks containing nutrient broth and incubated at 37+2° C. overnight. The flasks were removed from the overnight incubation and the final concentration was determined (the OD was measured and determined whether growth was suitable for testing). Top agar was melted, and 2.0 mL was dispensed into heated culture tubes. The S9 mix (metabolic activation) was prepared and stored on ice. […] Each culture tube was vortexed and immediately poured onto the labeled minimal glucose agar plates. All plates were inverted and placed into a 37±1° C. incubator for 48-72 hours. The plates were counted via an automated colony counter or by hand and the background lawn was microscopically evaluated for any signs of toxicity. Genotypic control plates were prepared for each tester strain and incubated for 24-72 hours at 37±1° C.

USP2a = molecular target: T1, USP2a (Homo sapiens, UniProt O75604); assay: ITC, Flag-USP2a; format: binding; set-up: host or cells: HEK293T
T1 sequence (O75604 1-605): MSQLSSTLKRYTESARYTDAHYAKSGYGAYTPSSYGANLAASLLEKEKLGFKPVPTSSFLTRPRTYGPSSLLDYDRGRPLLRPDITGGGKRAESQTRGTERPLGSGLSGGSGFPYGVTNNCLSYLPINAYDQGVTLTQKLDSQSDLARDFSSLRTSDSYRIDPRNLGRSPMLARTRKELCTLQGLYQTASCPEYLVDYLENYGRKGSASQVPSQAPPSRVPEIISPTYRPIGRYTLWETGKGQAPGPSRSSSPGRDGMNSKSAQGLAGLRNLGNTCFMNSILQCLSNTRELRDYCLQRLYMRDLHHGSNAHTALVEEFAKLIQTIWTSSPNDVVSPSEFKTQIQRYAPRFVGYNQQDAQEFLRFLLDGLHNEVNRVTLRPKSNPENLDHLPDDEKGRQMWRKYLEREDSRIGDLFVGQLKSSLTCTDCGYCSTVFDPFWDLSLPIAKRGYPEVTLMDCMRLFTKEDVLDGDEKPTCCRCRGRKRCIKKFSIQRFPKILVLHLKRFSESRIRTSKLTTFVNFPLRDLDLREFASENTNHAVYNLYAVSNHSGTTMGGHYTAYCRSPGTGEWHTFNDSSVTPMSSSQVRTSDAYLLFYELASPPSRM
From the text: Purification of Flag-tagged DDX5 (Flag-DDX5), USP2a (Flag-USP2), UbE2T (Flag-(bE2T) and topoisomerase 1 (Top1) (Flag-Top1) proteins: Flag-DDX5, Flag-USP2, Flag-UbE2T and Flag-Topl proteins were purified from the protein expression vector-transfected HEK293T cells by using the FLAG® M Purification Kit for mammalian expression systems (CELLMM2-IKT, Sigma). Briefly, sub-confluent populations of HEK293T cells were transfected with expression vectors for Flag-DDX5, Flag-USP2, Flag-UbE2T and Flag-Top1 (OriGene) using Lipofectamine 2000 (Invitrogen) as per the manufacturer's instructions. After 72h of transfection, cells were lysed in Cell Lytic M lysis reagent (Sigma Cat #C2978) containing a protease inhibitor cocktail. […]
Replacement of the Tris-HCl buffer with the PBS buffer for purified proteins for drug-protein binding analyses using isothermal titration calorimetry (ITC): After the purified proteins were eluted from the agarose resin with 3×flag peptide, the same purified protein samples from different batches were combined. […] The PBS-resuspended protein samples were recovered from the reservoir and the protein concentrations were determined using the nano-drop reader (Bio-Rad) and BCA Protein Assay (Thermo/Pierce) for double-making sure the concentration. […]

P-gp = P-gp (Homo sapiens, UniProt P08183)
Sequence of P-gp (P08183 whole entry): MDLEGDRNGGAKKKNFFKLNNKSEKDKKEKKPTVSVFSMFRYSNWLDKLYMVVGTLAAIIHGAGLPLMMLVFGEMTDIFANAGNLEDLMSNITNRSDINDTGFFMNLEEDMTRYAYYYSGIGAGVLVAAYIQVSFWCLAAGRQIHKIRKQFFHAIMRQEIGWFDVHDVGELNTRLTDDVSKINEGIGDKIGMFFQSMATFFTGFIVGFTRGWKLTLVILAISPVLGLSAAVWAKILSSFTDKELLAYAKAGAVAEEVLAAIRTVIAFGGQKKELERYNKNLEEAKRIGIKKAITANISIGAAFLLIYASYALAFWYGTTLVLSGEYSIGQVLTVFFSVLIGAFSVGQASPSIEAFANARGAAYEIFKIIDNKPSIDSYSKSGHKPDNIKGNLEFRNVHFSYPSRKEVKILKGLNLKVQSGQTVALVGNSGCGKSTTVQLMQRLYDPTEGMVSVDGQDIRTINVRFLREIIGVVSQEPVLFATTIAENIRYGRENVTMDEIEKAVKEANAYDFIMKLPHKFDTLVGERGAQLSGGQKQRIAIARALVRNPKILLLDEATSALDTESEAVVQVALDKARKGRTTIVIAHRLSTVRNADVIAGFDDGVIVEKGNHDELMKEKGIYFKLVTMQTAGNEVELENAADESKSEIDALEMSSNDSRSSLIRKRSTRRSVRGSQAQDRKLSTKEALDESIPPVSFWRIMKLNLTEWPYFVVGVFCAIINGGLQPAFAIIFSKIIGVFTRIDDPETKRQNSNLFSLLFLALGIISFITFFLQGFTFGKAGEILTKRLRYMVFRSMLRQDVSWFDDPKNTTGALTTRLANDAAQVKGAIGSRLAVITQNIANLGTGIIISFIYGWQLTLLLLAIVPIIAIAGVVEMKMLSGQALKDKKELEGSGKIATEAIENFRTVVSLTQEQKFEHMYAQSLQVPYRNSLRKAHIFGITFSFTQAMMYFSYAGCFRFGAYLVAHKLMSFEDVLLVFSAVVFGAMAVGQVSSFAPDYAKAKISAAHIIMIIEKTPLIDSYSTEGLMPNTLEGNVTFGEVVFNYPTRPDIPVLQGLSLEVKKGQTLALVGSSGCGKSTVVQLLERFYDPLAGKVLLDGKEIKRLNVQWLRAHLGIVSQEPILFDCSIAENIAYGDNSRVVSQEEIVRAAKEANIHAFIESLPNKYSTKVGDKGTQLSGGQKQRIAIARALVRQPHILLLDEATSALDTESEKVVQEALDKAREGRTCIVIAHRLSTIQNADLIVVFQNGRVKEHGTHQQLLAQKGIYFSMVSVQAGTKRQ

SMILES: CCC1(O)C(=O)OCc2c1cc1n(c2=O)Cc2cc3cc4c(cc3nc2-1)OCO4 (stereo not drawn) [FL118]
- antitumor efficacy (SK-ES-1 OS tumors): effectively eliminated human osteosarcoma xenograft tumors
- bacterial strain mutation (WP2-uvrA): does not induce
- mean revertant colonies over negative control (WP2-uvrA; +/− S9): less than 2 fold
- Background Lawn Code (WP2-uvrA; 0.010 μM +S9): 1
- Colony Counts Average (WP2-uvrA; 0.010 μM +S9): 40
- Colony Counts Replicate 1-3 (WP2-uvrA; 0.010 μM +S9): 38 and 47 and 34
- Background Lawn Code (WP2-uvrA; 0.010 μM −S9): 1
- Colony Counts Average (WP2-uvrA; 0.010 μM −S9): 29
- Colony Counts Replicate 1-3 (WP2-uvrA; 0.010 μM −S9): 35 and 22 and 31
- Background Lawn Code (WP2-uvrA; 0.10 μM +S9): 1
- Colony Counts Average (WP2-uvrA; 0.10 μM +S9): 47
- Colony Counts Replicate 1-3 (WP2-uvrA; 0.10 μM +S9): 48 and 38 and 54
- Background Lawn Code (WP2-uvrA; 0.10 μM −S9): 1
- Colony Counts Average (WP2-uvrA; 0.10 μM −S9): 30
- Colony Counts Replicate 1-3 (WP2-uvrA; 0.10 μM −S9): 27 (2×) and 36
- Background Lawn Code (WP2-uvrA; 1.0 μM +S9): 1
- Colony Counts Average (WP2-uvrA; 1.0 μM +S9): 39
- Colony Counts Replicate 1-3 (WP2-uvrA; 1.0 μM +S9): 35 and 38 and 43
- Background Lawn Code (WP2-uvrA; 1.0 μM −S9): 1
- Colony Counts Average (WP2-uvrA; 1.0 μM −S9): 27
- Colony Counts Replicate 1-3 (WP2-uvrA; 1.0 μM −S9): 27 and 31 and 24
- Kd (USP2a): 52.3 nM
- inhibition of P-gp transport of digoxin (P-gp; 1.0 μM FL118): does not inhibit digoxin acting as a BCRP substrate
- P-gp Inhibition Potential Classification (P-gp; Caco-2, digoxin as substrate, 1.0 μM FL118 or 1.0 μM Valspodar): Negative (without inhibitor, and reduced by <50 with inhibitor: Negative)
